Assay results taken from patent US7811760B2, “Vector and method for detecting the change in transcription amount” (priority 2006, dated 2010).

Test system: ligand-dependent transcription factors (AhR, ER, and AR)
Experiment: Reporter gene (luciferase) assay in Neuro2a cells carrying PGV-THp03 (SEQ ID No: 2)
Format: cell-based, mouse
Conditions: for luciferase activity increase: 30 hours, PGV-THp03, AhR-introduced Neuro2a
Method: A vector (PGV-THp03) containing the upstream region (SEQ ID No: 2) ranging from about −300 to 0 position of the TH gene-coding region, which was prepared in Example 4, was used. Neuro2a was used as the cell.
Two kinds of vectors, pcDNA4-rAhR (Example 1) and pcDNA4/V5-His/lacZ (Invitrogen), were introduced into Neuro2a, together with PGV-THp03. pcDNA4-rAhR was introduced for constitutive expression of the SD-line rat AhR gene (SEQ ID No: 10) in the cell, and pcDNA4/V5-His/lacZ was introduced for normalization of the vector transfection efficiency.
The vectors were introduced into the cell by using LIPOFECTAMINE 2000 (Invitrogen). The cell was cultured on a 24-well plate, and the operation was performed according to the manual of Invitrogen. A total of […] of vectors (0.4 μg of PGV-THp03, 0.2 μg of pcDNA4-rAhR, and 0.2 μg of pcDNA4/V5-His/lacZ) suspended in 50 μl of OPTI-MEM medium and 2 μl of LIPOFECTAMINE 2000 suspended in 50 μl of OPTI-MEM medium were mixed, and incubated at room temperature for 20 minutes to form nucleic acid/LIPOFECTAMINE 2000 complex. The obtained suspension containing the complex was added to Neuro2a cell culture, which has been previously cultured overnight in 500 μl of DF1:1 medium (containing 10% fetal calf serum) (0.8×10^5 cells were seeded on previous day), to allow incorporation of the vectors into the cell. The cell was cultured additionally for 24 hours after transfection, for the purpose of improvement in vector incorporation efficiency and expression of the protein derived from the introduced vectors.
As the test substances, vinclozolin (10 μM), dimethyl phthalate (10 μM), benzopyrene (1 μM), and dioxin (TCDD) (10 nM) were used. After the transfection and the additional incubation for 24 hours, the medium was replaced with a fresh medium containing any one of the test substances, and the cell was cultured additionally for 30 hours. After 30 hours, the medium was removed from the 24-well plate, and the cell was washed with phosphate buffer twice. 100 μl of a protein extraction solution (manufactured by TOYO B-NET) was added to each well, and the cell suspension was stirred gently at room temperature for 15 minutes and then frozen at −80° C. The frozen solution was thawed at room temperature, and the resulting solution was recovered in a tube and diluted ten times with a protein extraction reagent containing 1 mg/ml bovine serum albumin luciferase and β-galactosidase activities in the diluted solution were measured, and the expression amount of the reporter gene was calculated as a relative luminescence intensity per 1 ng of β-galactosidase per second (RLU/sec/ng β-galactosidase).

**Q.** For `COC(=O)c1ccccc1C(=O)OC` [Dimethyl phthalate, dimethyl phthalate], which luciferase activity increase (10 μM) is on record?
**A.** approximately 1.2 times

**Q.** How did the luciferase activity increase (1 μM) turn out when `c1ccc2c(c1)c1cccc3ccc4cccc2c4c31` [benzopyrene] was run?
**A.** approximately 1.3 times

**Q.** Which results are given for `C=CC1(C)OC(=O)N(c2cc(Cl)cc(Cl)c2)C1=O` (stereo not shown) [vinclozolin]?
**A.** luciferase activity increase (10 μM): approximately 1.3 times; change in luciferase activity (10 μM, PGV-THp03, cell with no AhR introduced): no change in luciferase activity
